These results are taken from patent US8431565B2 (priority 2007, dated 2013).

For series [1], the system named is rats. The series is described as follows: Spinal nerve ligation (SNL) model of neuropathic pain. Type of series: in vivo. The settings on record: rat; oral 3, 10 and 30 mg/kg; FIG. 4. The protocol:
The SNL model (Kim and Chung 1992) was used to induce chronic neuropathic pain in rats. The rats were anesthetized with isoflurane, the left L5 transverse process was removed, and the L5 and L6 spinal nerves were tightly ligated with 6-0 silk suture. The wound was then closed with internal sutures and external staples. Following at least seven days post SNL, baseline, post-injury and post-treatment values for non-noxious mechanical sensitivity were evaluated using eight Semmes-Weinstein filaments (Stoelting, Wood Dale, Ill., USA) with varying stiffness (0.4, 0.7, 1.2, 2.0, 3.6, 5.5, 8.5, and 15 g) according to the up-down method (Chaplan et al. 1994). Animals were placed on a perforated metallic platform and allowed to acclimate to their surroundings for a minimum of thirty minutes before testing. The mean and standard error of the mean (SEM) were determined for the injured paw in each treatment group. Since this stimulus is normally not considered painful, significant injury-induced increases in responsiveness in this test are interpreted as a measure of mechanical allodynia. The dose which elicited 50% attenuation of mechanical hypersensitivity (ED50) was determined using linear regression analysis. Results obtained after oral administration of compound 317 at 3, 10 and 30 mg/kg and with compound 366 at 1, 3 and 10 mg/kg are shown in FIG. 4.

For series [2], the system named is rats. The series is described as follows: Carrageenan model of acute inflammation. It is filed as in vivo. The settings on record: rat; oral 1, 3 and 10 mg/kg; FIG. 3B.
A further series has as its system Male ICR mice. The series is described as follows: Inhibition of acetic acid-induced writhing. Type of series: in vivo, mouse. To be noted: subcutaneous 3, 10 and 30 mg/kg, FIG. 2. The text has this: 12: 525-562; Ramabadran and Bansinath (1986) Pharm. Res. 3: 263-270]. Intraperitoneal administration of dilute acetic acid solution causes a writhing behavior in mice. A writhe is defined as a contraction of the abdominal muscles accompanied by an extension of the forelimbs and elongation of the body. The number of writhes observed in the presence and absence of test compounds is counted to determine the analgesic activity of the compounds.
Male ICR mice, 20-40 grams in weight, were weighed and placed in individual observation chambers (usually a 4000 ml beaker) with a fine layer of rodent bedding at the bottom. To determine the activity and potency of test compounds, different doses of the compound solution or vehicle were injected subcutaneously in the back of the neck 30 minutes prior to administration of acetic acid solution. After administration of the compound or vehicle control, mice were returned to their individual observation chambers awaiting the intraperitoneal administration of acetic acid solution. Thirty minutes later, 10 ml/kg of a 0.6% (v/v) acetic acid solution was then injected into the right lower quadrant of the abdomen. […] The number of writhes was counted over a 15-min period starting from the time of acetic acid injection. Raw data were analyzed using a one-way ANOVA followed by Dunnett's post-tests. […]
In general terms: Writhing tests count abdominal constrictions after an irritant is injected.

The target of series [3] is human CB1 receptor (hCB1) (Homo sapiens, UniProt P21554). It is filed as cell-based.
In another series the target is T1, rat CB2 receptor (rCB2) (Rattus norvegicus, UniProt Q9QZN9).
T1 sequence (Q9QZN9 1-360): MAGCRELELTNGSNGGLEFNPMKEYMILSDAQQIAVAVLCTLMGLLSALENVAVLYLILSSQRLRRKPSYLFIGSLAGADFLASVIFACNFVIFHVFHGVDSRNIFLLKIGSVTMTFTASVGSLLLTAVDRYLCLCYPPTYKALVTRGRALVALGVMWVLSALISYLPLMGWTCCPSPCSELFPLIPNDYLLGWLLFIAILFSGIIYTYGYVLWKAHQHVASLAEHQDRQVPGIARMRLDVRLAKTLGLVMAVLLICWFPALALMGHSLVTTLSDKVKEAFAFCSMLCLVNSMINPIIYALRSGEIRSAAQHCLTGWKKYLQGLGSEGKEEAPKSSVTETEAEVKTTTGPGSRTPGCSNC

A further series deals with Male Sprague-Dawley rats. The series is described as follows: Complete Freund's Adjuvant (CFA) model of inflammatory pain, Randall-Selitto paw pressure. It is filed as in vivo. The settings on record: rat, intraperitoneal. The protocol: Male Sprague-Dawley rats (Hsd:Sprague-Dawley®™ SD®™, Harlan, Indianapolis, Ind.) weighing 201±1 grams, were housed three per cage. Animals had free access to food and water and were maintained on a twelve hour light/dark schedule for the entire duration of the experiment. Approximately 12 hours prior to behavioral testing, animals were placed on wire mesh bottom cages with free access to water but no access to food. Test compounds were prepared in 50% PEG-400 (Sigma-Aldrich, cat. P3265). Indomethacin (Fluka, cat 57413) was suspended in 0.5% methylcellulose (Sigma-Aldrich, cat. 274429). Groups of eight animals were anesthetized with 2-3% isoflurane and local inflammation induced by 50 μl CFA (Sigma-Aldrich, cat F5881, Mycobacterium tuberculosis 1 mg/ml) injected subcutaneously into the plantar surface of the left paw.
Assessment of mechanical hyperalgesia: Baseline and post-treatment withdrawal thresholds to a noxious mechanical stimulus were measured using the Randall-Selitto paw pressure apparatus (Ugo Basile Analgesymeter, model 7200). […] Mechanical hyperalgesia was measured using the Randall-Selitto paw pressure device before CFA injection and after intraperitoneal (i.p.) compound administration over a twenty-four-hour period. The mean and standard error of the mean (SEM) were determined for the injured and normal paws for each treatment group.

As a reminder, the pEC50 is the EC50 on a negative log10 scale, so that one unit is a factor of ten. The low end stands for a high EC50, the high end for a low EC50.

pEC50: −log10 of the molar value.

Chain of human CB1 receptor (hCB1) (P21554 whole entry): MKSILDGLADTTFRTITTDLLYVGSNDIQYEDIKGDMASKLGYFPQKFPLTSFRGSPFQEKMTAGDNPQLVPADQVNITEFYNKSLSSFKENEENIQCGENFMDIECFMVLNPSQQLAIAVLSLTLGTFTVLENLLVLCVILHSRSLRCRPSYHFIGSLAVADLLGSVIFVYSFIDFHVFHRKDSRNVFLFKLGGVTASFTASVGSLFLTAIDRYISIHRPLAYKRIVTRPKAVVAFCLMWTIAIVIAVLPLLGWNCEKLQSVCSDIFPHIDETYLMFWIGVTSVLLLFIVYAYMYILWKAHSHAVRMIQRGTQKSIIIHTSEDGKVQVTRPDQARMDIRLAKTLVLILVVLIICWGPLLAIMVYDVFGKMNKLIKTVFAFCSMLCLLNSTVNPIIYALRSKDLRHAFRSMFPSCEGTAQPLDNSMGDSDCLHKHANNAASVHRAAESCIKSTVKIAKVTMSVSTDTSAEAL

With `CNC(=O)[C@@H](NC(=O)c1nc(-c2ccc(Cl)cc2F)n2c1CN(C)CCC2)C(C)(C)C` [Compound 366, (S)-3-(4-chloro-2-fluorophenyl)-N-(3,3-dimethyl-1-(methylamino)-1-oxobutan-2-yl)-8-methyl-6,7,8,9-tetrahydro-5H-imidazo[1,5-a][1,4]diazepine-1-carboxamide], the “response in the neuropathic pain model” value with rats [1] is “dose response in the neuropathic pain model”. In the series with rats [2], the “inhibition of carrageenan-induced hyper-sensitivity” value is “dose response in the inhibition of carrageenan-induced hyper-sensitivity”. Moreover, in the series with Male ICR mice, the “inhibition of acetic acid-induced writhing” value is “dose response in the inhibition of acetic acid-induced writhing”.

Consider `CN1CCn2c(-c3ccc(Cl)cc3F)nc(C(=O)N3CCC4(CCNC4=O)CC3)c2C1` [Compound 220, 8-(3-(4-chloro-2-fluorophenyl)-7-methyl-5,6,7,8-tetrahydroimidazo[1,5-a]pyrazine-1-carbonyl)-2,8-diazaspiro[4.5]decan-1-one], for which the pEC50 (in series [3]; on rat CB2 receptor (rCB2)) was under 5.00 in each case.

Regarding `CCS(=O)(=O)N1CCn2c(-c3ccccc3)nc(C(=O)N[C@H](C(=O)NC)C(C)(C)C)c2C1` [Compound 91, (S)—N-(3,3-dimethyl-1-(methylamino)-1-oxobutan-2-yl)-7-(ethylsulfonyl)-3-phenyl-5,6,7,8-tetrahydroimidazo[1,5-a]pyrazine-1-carboxamide], the “side effects during the experiment” value in the series with Male Sprague-Dawley rats (CFA experiment) is given as “No side effects were observed”. Besides, the “effect on paw withdrawal threshold after intrapaw CFA” value in the series on Male Sprague-Dawley rats (vs vehicle over twenty-four hours, FIG. 1) is “anti-hyperalgesic effect”. At rat CB2 receptor (rCB2), the pEC50 is 7.00 to 8.00.

The compound `CC(C)(C)[C@H](NC(=O)c1nc(-c2ccccc2)n2c1CNCC2)C(=O)N1CCOCC1` [Compound 733, (S)-N-(3,3-dimethyl-1-morpholino-1-oxobutan-2-yl)-3-phenyl-5,6,7,8-tetrahydroimidazo[1,5-a]pyrazine-1-carboxamide] showed a pEC50 in series [3] of under 5.00.

Compound `CNC(=O)[C@@H](NC(=O)c1nc(-c2cccnc2OC(C)C)n2c1CN(C)CCC2)C(C)(C)C` [Compound 641, (S)-N-(3,3-dimethyl-1-(methylamino)-1-oxobutan-2-yl)-3-(2-isopropoxypyridin-3-yl)-8-methyl-6,7,8,9-tetrahydro-5H-imidazo[1,5-a][1,4]diazepine-1-carboxamide] showed a pEC50 in series [3] of under 5.00.

`CNC(=O)[C@@H](NC(=O)c1nc(-c2cc(F)c(F)cc2F)n2c1CN(c1cncc(Cl)n1)CCC2)C(C)(C)C` [Compound 718, (S)-8-(6-chloropyrazin-2-yl)-N-(3,3-dimethyl-1-(methylamino)-1-oxobutan-2-yl)-3-(2,4,5-trifluorophenyl)-6,7,8,9-tetrahydro-5H-imidazo[1,5-a][1,4]diazepine-1-carboxamide]: the pEC50 in series [3] is under 5.00.

As to `CNC(=O)[C@@H](NC(=O)c1nc(-c2ccc3c(c2)OCCO3)n2c1CN(C)CCC2)C(C)(C)C` [Compound 326, (S)-3-(2,3-dihydrobenzo[b][1,4]dioxin-6-yl)-N-(3,3-dimethyl-1-(methylamino)-1-oxobutan-2-yl)-8-methyl-6,7,8,9-tetrahydro-5H-imidazo[1,5-a][1,4]diazepine-1-carboxamide], the negative-log EC50 (pEC50) in series [3] was under 5.00; on rat CB2 receptor (rCB2), 7.00 to 8.00.

In series [3], `CNC(=O)[C@@H](NC(=O)c1nc(-c2ccc(OC(C)C)cc2)n2c1CN(C)CCC2)C(C)(C)C` [Compound 649, (S)-N-(3,3-dimethyl-1-(methylamino)-1-oxobutan-2-yl)-3-(4-isopropoxyphenyl)-8-methyl-6,7,8,9-tetrahydro-5H-imidazo[1,5-a][1,4]diazepine-1-carboxamide] showed a pEC50 of under 5.00.

In the case of `CN1CCN(CC(C)(C)NC(=O)c2nc(-c3cc(Cl)c(F)cc3F)n3c2CN(C)CCC3)CC1` [Compound 879, 3-(5-chloro-2,4-difluorophenyl)-8-methyl-N-(2-methyl-1-(4-methylpiperazin-1-yl)propan-2-yl)-6,7,8,9-tetrahydro-5H-imidazo[1,5-a][1,4]diazepine-1-carboxamide], the negative-log EC50 (pEC50) in series [3] is under 5.00.

For the compound `CNC(=O)[C@@H](NC(=O)c1nc(-c2cnn(S(=O)(=O)c3ccccc3)c2)n2c1CN(C)CCC2)C(C)(C)C` [Compound 776, (S)-N-(3,3-dimethyl-1-(methylamino)-1-oxobutan-2-yl)-8-methyl-3-(1-(phenylsulfonyl)-1H-pyrazol-4-yl)-6,7,8,9-tetrahydro-5H-imidazo[1,5-a][1,4]diazepine-1-carboxamide], the pEC50 in series [3] is under 5.00.

Compound `CN1CCCn2c(-c3cc(F)c(F)cc3F)nc(C(=O)NC(C)(C)CO)c2C1` [Compound 765, N-(1-hydroxy-2-methylpropan-2-yl)-8-methyl-3-(2,4,5-trifluorophenyl)-6,7,8,9-tetrahydro-5H-imidazo[1,5-a][1,4]diazepine-1-carboxamide] showed a pEC50 in series [3] of under 5.00.

The compound `CC1CN(C(=O)c2nc(-c3cc(F)c(F)cc3F)n3c2CN(C)CCC3)CC(C)O1` (stereo not shown) [Compound 854, (2,6-dimethylmorpholino)(8-methyl-3-(2,4,5-trifluorophenyl)-6,7,8,9-tetrahydro-5H-imidazo[1,5-a][1,4]diazepin-1-yl)methanone] showed a pEC50 in series [3] of under 5.00.

With `CN1CCCn2c(-c3cc(Cl)ccc3F)nc(C(=O)N[C@H](CN3CCCC3=O)C(C)(C)C)c2C1` [Compound 769, (S)-3-(5-chloro-2-fluorophenyl)-N-(3,3-dimethyl-1-(2-oxopyrrolidin-1-yl)butan-2-yl)-8-methyl-6,7,8,9-tetrahydro-5H-imidazo[1,5-a][1,4]diazepine-1-carboxamide], in series [3], the pEC50 was under 5.00.
